Data reported in ChEMBL document CHEMBL1909046, “DrugMatrix in vitro pharmacology data”.

How the values were obtained:
[1] = target: T1, Alpha-1D adrenergic receptor (Homo sapiens, UniProt P25100); assay type: cell membranes, HEK293, Membrane; further: in other assays of this panel Not Active means under 50% inhibition at 10 µM
T1 sequence (P25100 whole entry): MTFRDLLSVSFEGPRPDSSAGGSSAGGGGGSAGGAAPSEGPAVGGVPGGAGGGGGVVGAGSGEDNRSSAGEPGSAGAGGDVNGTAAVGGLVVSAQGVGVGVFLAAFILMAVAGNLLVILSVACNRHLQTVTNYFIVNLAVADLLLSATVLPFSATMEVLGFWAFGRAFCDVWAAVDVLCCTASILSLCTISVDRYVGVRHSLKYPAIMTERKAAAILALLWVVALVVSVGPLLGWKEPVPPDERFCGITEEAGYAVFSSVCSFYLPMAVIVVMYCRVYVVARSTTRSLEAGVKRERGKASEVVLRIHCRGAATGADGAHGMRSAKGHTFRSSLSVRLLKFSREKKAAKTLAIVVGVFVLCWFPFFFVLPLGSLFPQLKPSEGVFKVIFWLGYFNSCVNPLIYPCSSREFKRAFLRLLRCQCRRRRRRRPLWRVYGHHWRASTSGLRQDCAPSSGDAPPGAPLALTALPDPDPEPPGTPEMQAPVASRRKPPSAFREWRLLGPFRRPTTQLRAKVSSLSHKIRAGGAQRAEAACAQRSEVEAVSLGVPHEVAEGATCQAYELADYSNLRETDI

[2] = target: T2, 5-hydroxytryptamine receptor 2C (Homo sapiens, UniProt P28335); experiment: DRUGMATRIX: Serotonin (5-Hydroxytryptamine) 5-HT2C radioligand binding (ligand: [3H] Mesulergine); assay type: cell membranes, CHO-K1, Membrane; settings: cho-k1; Not Active = under 50% inhibition at 10 µM
T2 sequence (P28335 whole entry): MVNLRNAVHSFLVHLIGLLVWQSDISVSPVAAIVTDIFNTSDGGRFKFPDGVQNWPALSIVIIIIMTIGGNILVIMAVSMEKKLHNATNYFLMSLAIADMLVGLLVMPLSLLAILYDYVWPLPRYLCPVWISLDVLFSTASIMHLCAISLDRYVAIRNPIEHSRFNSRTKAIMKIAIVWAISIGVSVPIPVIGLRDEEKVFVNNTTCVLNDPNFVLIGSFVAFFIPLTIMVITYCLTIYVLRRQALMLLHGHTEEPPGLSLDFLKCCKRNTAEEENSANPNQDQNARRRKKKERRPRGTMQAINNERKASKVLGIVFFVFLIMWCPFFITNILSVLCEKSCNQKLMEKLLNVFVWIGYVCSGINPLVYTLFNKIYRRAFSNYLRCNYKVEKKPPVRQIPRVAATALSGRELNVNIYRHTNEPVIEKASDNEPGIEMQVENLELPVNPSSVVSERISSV

[3] = target: T3, 3-hydroxy-3-methylglutaryl-coenzyme A reductase (Homo sapiens, UniProt P04035); design: species or system Escherichia coli;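 further: enzyme inhibition assay of HMG-CoA reductase using radiolabeled [14C]HMG-CoA as substrate; in other assays of this panel Not Active means under 50% inhibition at 10 µM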
T3 sequence (P04035 whole entry): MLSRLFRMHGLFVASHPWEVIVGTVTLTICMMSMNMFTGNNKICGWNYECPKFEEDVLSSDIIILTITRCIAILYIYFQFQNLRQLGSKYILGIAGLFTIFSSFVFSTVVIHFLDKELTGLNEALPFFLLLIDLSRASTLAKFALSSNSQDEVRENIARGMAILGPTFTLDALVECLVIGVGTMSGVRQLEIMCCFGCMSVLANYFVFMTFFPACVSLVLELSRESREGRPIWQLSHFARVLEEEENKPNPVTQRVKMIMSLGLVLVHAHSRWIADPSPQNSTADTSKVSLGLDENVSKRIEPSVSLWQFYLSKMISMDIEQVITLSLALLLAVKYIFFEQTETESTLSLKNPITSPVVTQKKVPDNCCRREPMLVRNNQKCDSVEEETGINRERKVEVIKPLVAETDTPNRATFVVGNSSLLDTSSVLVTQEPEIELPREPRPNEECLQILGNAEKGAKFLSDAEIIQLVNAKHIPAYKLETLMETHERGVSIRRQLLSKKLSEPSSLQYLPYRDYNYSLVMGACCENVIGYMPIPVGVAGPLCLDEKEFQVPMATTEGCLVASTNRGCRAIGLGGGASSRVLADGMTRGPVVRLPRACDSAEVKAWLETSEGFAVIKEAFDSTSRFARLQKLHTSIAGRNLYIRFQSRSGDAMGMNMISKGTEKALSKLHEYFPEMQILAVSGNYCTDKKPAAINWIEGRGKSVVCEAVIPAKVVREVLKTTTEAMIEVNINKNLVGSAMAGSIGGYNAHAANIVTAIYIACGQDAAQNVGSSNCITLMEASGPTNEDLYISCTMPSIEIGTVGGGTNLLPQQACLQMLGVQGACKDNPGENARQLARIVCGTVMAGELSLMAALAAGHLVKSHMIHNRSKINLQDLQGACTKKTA

[4] = target: Mitogen-activated protein kinase 14 (Homo sapiens, UniProt Q16539); design: species or system Escherichia coli;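 further: inhibition of p38alpha enzyme activity in a biochemical kinase assay, with myelin basic protein serving as substrate; in other assays of this panel Not Active means under 50% inhibition at 10 µM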
[5] = target: 5-hydroxytryptamine receptor 1B (Rattus norvegicus, UniProt P28564); assay type: cell membranes, Wistar, Cerebral cortex, Membrane; further: in other assays of this panel Not Active means under 50% inhibition at 10 µM
Chain of 5-hydroxytryptamine receptor 1B (P28564 whole entry): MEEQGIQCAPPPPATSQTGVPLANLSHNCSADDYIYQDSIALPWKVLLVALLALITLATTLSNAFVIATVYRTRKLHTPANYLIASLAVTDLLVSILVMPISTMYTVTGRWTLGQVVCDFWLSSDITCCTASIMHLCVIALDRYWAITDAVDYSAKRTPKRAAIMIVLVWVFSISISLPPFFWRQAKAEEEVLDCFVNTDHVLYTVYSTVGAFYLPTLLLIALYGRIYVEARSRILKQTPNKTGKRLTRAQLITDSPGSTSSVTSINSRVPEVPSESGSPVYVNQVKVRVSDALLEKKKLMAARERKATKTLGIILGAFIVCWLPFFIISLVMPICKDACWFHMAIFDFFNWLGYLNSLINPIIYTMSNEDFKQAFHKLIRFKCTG

Chain of Mitogen-activated protein kinase 14 (Q16539 whole entry): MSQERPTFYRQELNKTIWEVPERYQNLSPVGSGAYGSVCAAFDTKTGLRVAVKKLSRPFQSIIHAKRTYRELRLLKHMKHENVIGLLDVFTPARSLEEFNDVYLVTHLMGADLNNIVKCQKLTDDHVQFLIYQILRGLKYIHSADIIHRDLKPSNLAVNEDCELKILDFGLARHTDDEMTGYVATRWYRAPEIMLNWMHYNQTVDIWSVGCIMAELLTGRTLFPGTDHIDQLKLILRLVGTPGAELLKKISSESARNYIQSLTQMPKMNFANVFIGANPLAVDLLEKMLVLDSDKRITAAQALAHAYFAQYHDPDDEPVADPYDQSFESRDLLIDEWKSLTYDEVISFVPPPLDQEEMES

| Structure (SMILES) | IC50 ([1]; hek293) | IC50 [2] | IC50 [3] | IC50 [4] | IC50 [5] | IC50 ([5]; read-out: IC50) [µM] | Ki ([5]; read-out: Ki) [µM] | IC50 ([1]; read-out: IC50) [nM] | Ki ([1]; read-out: Ki) [nM] |
| --- | --- | --- | --- | --- | --- | --- | --- | --- | --- |
| CN(C)/N=N/c1[nH]cnc1C(N)=O [DACARBAZINE] | Not Active | Not Active | Not Active | Not Active | Not Active |  |  |  |  |
| COc1ccc2c(c1)[C@]13CCCC[C@@H]1[C@H](C2)N(C)CC3 [DEXTROMETHORPHAN] | Not Active | Not Active | Not Active | Not Active | Not Active |  |  |  |  |
| CC(=O)Nc1c(I)c(NC(C)=O)c(I)c(C(=O)O)c1I [DIATRIZOIC ACID] | Not Active | Not Active | Not Active | Not Active | Not Active |  |  |  |  |
| COP(=O)(OC)OC=C(Cl)Cl [DICHLORVOS] | Not Active | Not Active | Not Active | Not Active | Not Active |  |  |  |  |
| O=C(O)Cc1ccccc1Nc1c(Cl)cccc1Cl [DICLOFENAC] | Not Active | Not Active | Not Active | Not Active | Not Active |  |  |  |  |
| C[C@H]1O[C@@H](O[C@H]2[C@@H](O)C[C@H](O[C@H]3[C@@H](O)C[C@H](O[C@H]4CC[C@@]5(C)[C@H](CC[C@@H]6[C@@H]5CC[C@]5(C)[C@@H](C7=CC(=O)OC7)CC[C@]65O)C4)O[C@@H]3C)O[C@@H]2C)C[C@H](O)[C@@H]1O [DIGITOXIN] | Not Active | Not Active | Not Active | Not Active | Not Active |  |  |  |  |
| CCN1CC(CCN2CCOCC2)C(c2ccccc2)(c2ccccc2)C1=O (configuration not stated) [DOXAPRAM] | Not Active | Not Active | Not Active | Not Active | Not Active |  |  |  |  |
| Cn1c(=O)c2c(ncn2CC2OCCO2)n(C)c1=O [DOXOFYLLINE] | Not Active | Not Active | Not Active | Not Active | Not Active |  |  |  |  |
| COc1cccc2c1C(=O)c1c(O)c3c(c(O)c1C2=O)C[C@@](O)(C(=O)CO)C[C@@H]3O[C@H]1C[C@H](N)[C@H](O)[C@H](C)O1 [DOXORUBICIN] | Not Active | Not Active | Not Active | Not Active |  | 34.5 | 15.7 |  |  |
| COc1cccc2c1C(=O)c1c(O)c3c(c(O)c1C2=O)C[C@@](O)(C(=O)CO)C[C@@H]3O[C@H]1C[C@H](N)[C@@H](O)[C@H](C)O1 [EPIRUBICIN] | Not Active | Not Active | Not Active | Not Active | Not Active |  |  |  |  |
| C[C@]12CC[C@@H]3c4ccc(OC(=O)c5ccccc5)cc4CC[C@H]3[C@@H]1CC[C@@H]2O [ESTRADIOL BENZOATE] | Not Active | Not Active | Not Active | Not Active | Not Active |  |  |  |  |
| C[C@]12CC[C@@H]3c4ccc(O)cc4CC[C@H]3[C@@H]1CC[C@@H]2O [ESTRADIOL] | Not Active | Not Active | Not Active | Not Active | Not Active |  |  |  |  |
| CC[C@@H](CO)NCCN[C@@H](CC)CO [ETHAMBUTOL] | Not Active | Not Active | Not Active | Not Active | Not Active |  |  |  |  |
| CC1(C)O[C@@H]2C[C@H]3[C@@H]4C[C@H](F)C5=CC(=O)C=C[C@]5(C)[C@H]4[C@@H](O)C[C@]3(C)[C@]2(C(=O)CO)O1 [FLUNISOLIDE] | Not Active | Not Active | Not Active | Not Active | Not Active |  |  |  |  |
| CC1(C)O[C@@H]2C[C@H]3[C@@H]4C[C@H](F)C5=CC(=O)C=C[C@]5(C)[C@@]4(F)[C@@H](O)C[C@]3(C)[C@]2(C(=O)CO)O1 [FLUOCINOLONE ACETONIDE] | Not Active | Not Active | Not Active | Not Active | Not Active |  |  |  |  |
| CC1(C)O[C@@H]2C[C@H]3[C@@H]4C[C@H](F)C5=CC(=O)CC[C@]5(C)[C@H]4[C@@H](O)C[C@]3(C)[C@]2(C(=O)CO)O1 [FLURANDRENOLIDE] | Not Active | Not Active | Not Active | Not Active | Not Active |  |  |  |  |
| CN(C)c1ccc(C(=C2C=CC(=[N+](C)C)C=C2)c2ccc(N(C)C)cc2)cc1.[Cl-] [GENTIAN VIOLET] |  | Not Active | Not Active | Not Active | Not Active |  |  | 1980 | 973 |
| Cc1ccc(S(=O)(=O)NC(=O)NN2CC3CCCC3C2)cc1 (configuration not stated) [GLICLAZIDE] | Not Active | Not Active | Not Active | Not Active | Not Active |  |  |  |  |
| NC(=O)NO [HYDROXYUREA] | Not Active | Not Active | Not Active | Not Active | Not Active |  |  |  |  |
| CC(C)Cc1ccc(C(C)C(=O)O)cc1 (configuration not stated) [IBUPROFEN] | Not Active | Not Active | Not Active | Not Active | Not Active |  |  |  |  |
| COc1ccc2c(c1)c(CC(=O)O)c(C)n2C(=O)c1ccc(Cl)cc1 [INDOMETHACIN] | Not Active | Not Active | Not Active | Not Active | Not Active |  |  |  |  |
| CCc1c2c(nc3ccc(OC(=O)N4CCC(N5CCCCC5)CC4)cc13)-c1cc3c(c(=O)n1C2)COC(=O)[C@]3(O)CC [IRINOTECAN] | Not Active | Not Active | Not Active | Not Active | Not Active |  |  |  |  |
| CC(C(=O)O)c1cccc(C(=O)c2ccccc2)c1 (configuration not stated) [KETOPROFEN] | Not Active | Not Active | Not Active | Not Active | Not Active |  |  |  |  |
| Nc1ccn([C@@H]2CS[C@H](CO)O2)c(=O)n1 [LAMIVUDINE] | Not Active | Not Active | Not Active | Not Active | Not Active |  |  |  |  |
| O=S(=O)([O-])CCS.[Na+] [MESNA] | Not Active | Not Active | Not Active | Not Active | Not Active |  |  |  |  |
| C#C[C@]1(O)CC[C@H]2[C@@H]3CCc4cc(OC)ccc4[C@H]3CC[C@@]21C [MESTRANOL] | Not Active | Not Active | Not Active | Not Active | Not Active |  |  |  |  |
| CC(=O)Nc1cccc(O)c1 [METACETAMOL] | Not Active | Not Active | Not Active | Not Active | Not Active |  |  |  |  |
| Cc1ncc([N+](=O)[O-])n1CCO [METRONIDAZOLE] | Not Active | Not Active | Not Active | Not Active | Not Active |  |  |  |  |
| CC(C)(C(=O)c1cccnc1)c1cccnc1 [METYRAPONE] | Not Active | Not Active | Not Active | Not Active | Not Active |  |  |  |  |
| Oc1ccc(OCc2ccccc2)cc1 [MONOBENZONE] | Not Active | Not Active | Not Active | Not Active | Not Active |  |  |  |  |
